Results published in patent US4539402A, “Quinazolinone derivatives” (Troponwerke GmbH & Co., priority 1982, dated 1985).
Like-named read-outs stand apart in the source and are kept apart here.

Legend:
Format in all cases: in vivo
[1] = test system: carrageenan oedema; experiment: antiphlogistic action, carrageenan oedema (modified method of Winter et al.); settings: po; peroral; pure λ-carrageenan as 0.25% suspension in physiological saline
Experimental: Exp. Biol. Med. 111, 544 (1962), with the modification that pure λ-carrageenan as a 0.25% strength suspension in physiological saline solution was used for oedema provocation. The following ED50 values, for example, were determined using this procedure: […]

[2] = test system: orientation motility; experiment: influence on orientation motility in mice (sedative action); settings: Mus musculus, po, read-out: ED50 (influence on orientation motility, sedative action)
Experimental: Influence on orientation motility in mice was tested to determine the sedative action; an ED50 of 0.5 mg/kg perorally was found for the compound of Example 4.

[3] = Randall-Selitto test (analgesic action); settings: Rattus norvegicus, po; perorally, rats
[4] = benzoquinone test (analgesic action); settings: Mus musculus, po; perorally; mice

Row | Structure (SMILES) | ED50 [1] | ED50 [2] | other results
1 | O=C1c2ccccc2N(c2cccc([N+](=O)[O-])c2)C2=NCCN12 [Example 4, 10-(3-Nitrophenyl)-2,3-dihydroimidazo-[2,1-b]-quinazolin-5(10H)-one] | 1.3 mg/kg |  | ED50 ([2]; perorally, mice): 0.5 mg/kg; ED50 [3]: 3.4 mg/kg; ED50 [4]: 3.1 mg/kg
2 | O=C1c2ccccc2N(c2cccc(C(F)(F)F)c2)C2=NCCN12 [Example 5, 10-(3-Trifluoromethylphenyl)-2,3-dihydroimidazo-[2,1-b]-quinazolin-5(10H)-one] | 25.2 mg/kg |  | 
3 | Nc1cccc(N2C3=NCCN3C(=O)c3ccccc32)c1 [Example 9, 10-(3-Aminophenyl)-2,3-dihydroimidazo-[2,1-b]-quinoazolin-5(10H)-one] | 3.1 mg/kg |  | 
4 | CN(C)CCCN1c2ccccc2Sc2ccc(Cl)cc21 [chlorpromazine] |  | 3.05 mg/kg | 
5 | CN1C(=O)CN=C(c2ccccc2)c2cc(Cl)ccc21 [diazepam] |  | 2.8 mg/kg | 
